The record followed here is PubChem BioAssay (NCI).

Several values for one entry are separate records, joined by “and”; a condition that tells them apart may be missing. Equal entries are not always repeated.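 Values below derive from 48-hour exposures of cells grown in 96-well plates, with endpoints linearly interpolated between the two concentrations bracketing the appropriate inhibition level. At the GI50, growth is halved. Definition used: TGI = concentration required for complete inhibition of growth.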

One assay concerns SK-MEL-5 melanoma. Nature of the assay: inhibition of tumour cell growth, NCI panel, 48 h.
Turning to `OCc1ccn2c1[C@@H](O)CC2`, the TGI was over 100 µM.
Take `Cc1[nH]c(/C=C2\C(=O)Nc3ccccc32)c(C)c1CCC(=O)O`: the GI50 is 19.8 µM; the TGI was 48.7 µM and 81.5 µM.
In turn, `c1ccc2c(c1)c1c(c3ccccc32)CN2CCCC2C1` (stereo not given) had a TGI of 11.2 µM.
As to `O=C(c1ccc(/C=C/c2n[nH]c3ccccc23)cc1)N1CCNCC1`, the GI50 is 6.9 µM and the TGI was 18.5 µM.
The matching figures for `CCOC(=O)c1c(NC(=O)c2cccc(C(F)(F)F)c2)sc2c(CN(C)C)c(O)ccc12`: 2.36 µM and 5.72 µM.
For `O=C(Nc1ccc(-n2ccc3c(NC(=O)c4ccccc4)nccc32)cc1)Nc1ccc(Cl)c(Cl)c1` the same measures were 0.748 µM and 2.2 µM.
For `O=C1NC(=NCCc2cccc(Cl)c2)S/C1=C\c1ccc2ncccc2c1` the same measures were over 25 µM and over 25 µM.
Regarding `N#CC1=C(N)Oc2cc(O)ccc2C1c1cccc2ccccc12` (stereo not given), the GI50 was 4.83 µM and the TGI came to 19.4 µM.
For `C=C1C(=O)O[C@H]2[C@H]1CC/C(COC(=O)/C=C\C(=O)NCc1ccc(Cn3c(=O)sn(CCCC)c3=O)cc1)=C\CC[C@@]1(C)O[C@@H]21` the same measures were 1.4 µM and 2.71 µM.

For the next assay, the system named is BT-549 breast. Nature of the assay: inhibition of tumour cell growth, NCI panel, 48 h.
`OCc1ccn2c1[C@@H](O)CC2` showed a TGI of over 100 µM.
With `Cc1[nH]c(/C=C2\C(=O)Nc3ccccc32)c(C)c1CCC(=O)O`, the GI50 is 22.5 µM; the TGI is 73.9 µM and > 100 µM.
For `c1ccc2c(c1)c1c(c3ccccc32)CN2CCCC2C1` (stereo not given), the TGI was found to be 53.9 µM.
Consider `O=C(c1ccc(/C=C/c2n[nH]c3ccccc23)cc1)N1CCNCC1`, for which the GI50 was 5.58 µM and 4.14 µM; the TGI was > 10 µM and 13.6 µM.
For the molecule `CCOC(=O)c1c(NC(=O)c2cccc(C(F)(F)F)c2)sc2c(CN(C)C)c(O)ccc12`, the GI50 is 12.2 µM and the TGI is 26.9 µM.
The matching figures for `O=C(Nc1ccc(-n2ccc3c(NC(=O)c4ccccc4)nccc32)cc1)Nc1ccc(Cl)c(Cl)c1`: 3.08 µM and 17.9 µM.
The matching figures for `O=C1NC(=NCCc2cccc(Cl)c2)S/C1=C\c1ccc2ncccc2c1`: over 25 µM and over 25 µM.
The matching figures for `N#CC1=C(N)Oc2cc(O)ccc2C1c1cccc2ccccc12` (stereo not given): 7.52 µM and 29.6 µM.
Turning to `C=C1C(=O)O[C@H]2[C@H]1CC/C(COC(=O)/C=C\C(=O)NCc1ccc(Cn3c(=O)sn(CCCC)c3=O)cc1)=C\CC[C@@]1(C)O[C@@H]21`, the GI50 was 0.909 µM and the TGI was 2.23 µM.

A further assay concerns HOP-62 NSCLC. The experiment in a line: inhibition of tumour cell growth, NCI panel, 48 h.
Turning to `OCc1ccn2c1[C@@H](O)CC2`, the TGI was over 100 µM.
With `Cc1[nH]c(/C=C2\C(=O)Nc3ccccc32)c(C)c1CCC(=O)O`, the GI50 was 23.7 µM and the TGI is over 100 µM.
As for `c1ccc2c(c1)c1c(c3ccccc32)CN2CCCC2C1` (stereo not given), the TGI is over 31.9 µM.
Consider `O=C(c1ccc(/C=C/c2n[nH]c3ccccc23)cc1)N1CCNCC1`, for which the GI50 is > 10 µM and 3.63 µM; the TGI was > 10 µM and 19.3 µM.
Regarding `CCOC(=O)c1c(NC(=O)c2cccc(C(F)(F)F)c2)sc2c(CN(C)C)c(O)ccc12`, the GI50 was 13.8 µM and the TGI was determined as 27.7 µM.
The matching figures for `O=C(Nc1ccc(-n2ccc3c(NC(=O)c4ccccc4)nccc32)cc1)Nc1ccc(Cl)c(Cl)c1`: 1.31 µM and 2.75 µM.
For `O=C1NC(=NCCc2cccc(Cl)c2)S/C1=C\c1ccc2ncccc2c1` the same measures were over 25 µM and over 25 µM.
For `N#CC1=C(N)Oc2cc(O)ccc2C1c1cccc2ccccc12` (stereo not given) the same measures were 13.5 µM and 31.7 µM.
For `C=C1C(=O)O[C@H]2[C@H]1CC/C(COC(=O)/C=C\C(=O)NCc1ccc(Cn3c(=O)sn(CCCC)c3=O)cc1)=C\CC[C@@]1(C)O[C@@H]21`, the GI50 was 1.63 µM and the TGI was determined as 3.46 µM.

The next assay deals with PC-3 prostate. The experiment in a line: inhibition of tumour cell growth, NCI panel, 48 h.
`OCc1ccn2c1[C@@H](O)CC2` gave a TGI of over 100 µM.
Consider `Cc1[nH]c(/C=C2\C(=O)Nc3ccccc32)c(C)c1CCC(=O)O`, for which the GI50 is 31.4 µM and the TGI was over 100 µM.
`c1ccc2c(c1)c1c(c3ccccc32)CN2CCCC2C1` (stereo not given) came in with a TGI of 13.4 µM.
Turning to `O=C(c1ccc(/C=C/c2n[nH]c3ccccc23)cc1)N1CCNCC1`, the GI50 was 5.02 µM and 3.12 µM; the TGI was > 10 µM and 35.8 µM.
Regarding `CCOC(=O)c1c(NC(=O)c2cccc(C(F)(F)F)c2)sc2c(CN(C)C)c(O)ccc12`, the GI50 was 5.45 µM and the TGI was 18.1 µM.
The matching figures for `O=C(Nc1ccc(-n2ccc3c(NC(=O)c4ccccc4)nccc32)cc1)Nc1ccc(Cl)c(Cl)c1`: 1.06 µM and over 26.6 µM.
The matching figures for `O=C1NC(=NCCc2cccc(Cl)c2)S/C1=C\c1ccc2ncccc2c1`: over 25 µM and over 25 µM.
The matching figures for `N#CC1=C(N)Oc2cc(O)ccc2C1c1cccc2ccccc12` (stereo not given): 5.21 µM and 29.2 µM.
Regarding `C=C1C(=O)O[C@H]2[C@H]1CC/C(COC(=O)/C=C\C(=O)NCc1ccc(Cn3c(=O)sn(CCCC)c3=O)cc1)=C\CC[C@@]1(C)O[C@@H]21`, the GI50 is 0.868 µM and the TGI was determined as 2.34 µM.

A further assay has as its system 786-0 renal. Nature of the assay: inhibition of tumour cell growth, NCI panel, 48 h.
As for `OCc1ccn2c1[C@@H](O)CC2`, the TGI is over 100 µM.
For `Cc1[nH]c(/C=C2\C(=O)Nc3ccccc32)c(C)c1CCC(=O)O`, the GI50 was 44.1 µM and the TGI was over 100 µM.
For the molecule `c1ccc2c(c1)c1c(c3ccccc32)CN2CCCC2C1` (stereo not given), the TGI stood at 23.1 µM.
For the molecule `O=C(c1ccc(/C=C/c2n[nH]c3ccccc23)cc1)N1CCNCC1`, the GI50 is 9.53 µM and 7.98 µM; the TGI was > 10 µM and 23 µM.
With `CCOC(=O)c1c(NC(=O)c2cccc(C(F)(F)F)c2)sc2c(CN(C)C)c(O)ccc12`, the GI50 was 2.33 µM and the TGI came to 6.1 µM.
The matching figures for `O=C(Nc1ccc(-n2ccc3c(NC(=O)c4ccccc4)nccc32)cc1)Nc1ccc(Cl)c(Cl)c1`: 1.01 µM and 2.36 µM.
The matching figures for `O=C1NC(=NCCc2cccc(Cl)c2)S/C1=C\c1ccc2ncccc2c1`: over 25 µM and over 25 µM.
The matching figures for `N#CC1=C(N)Oc2cc(O)ccc2C1c1cccc2ccccc12` (stereo not given): 13.4 µM and 29.8 µM.
Turning to `C=C1C(=O)O[C@H]2[C@H]1CC/C(COC(=O)/C=C\C(=O)NCc1ccc(Cn3c(=O)sn(CCCC)c3=O)cc1)=C\CC[C@@]1(C)O[C@@H]21`, the GI50 was 1.2 µM and the TGI is 2.56 µM.
